What was measured:
Test in all cases: Post-emergence efficacy, glasshouse
Assay type in all cases: in vivo
[1] = system: Euphorbia heterophylla (EPHHL); settings: Euphorbia heterophylla, post-emergence, 312 h, evaluated after 13 days, 100=total damage to plant, 0=no damage to plant, read-out: Control of weed species after post-emergence application, EPHHL; for pest or weed control at 500 g/ha: Application Rate 500 g/Ha; for pest or weed control at 1000 g/ha: Application Rate 1000 g/Ha
Method in brief: (§1)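 Visual damage score, 0–100 (100 = total plant damage), 13 days after spraying. Spray: IF50/acetone formulation diluted in water with 0.25% or 1% sodium lauryl ether sulphate + 1% ammonium sulphate, applied to 14-day-old pot-grown plants.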

[2] = system: Setaria faberi (SETFA); settings: Setaria faberi, post-emergence, 312 h, evaluated after 13 days, 100=total damage to plant, 0=no damage to plant, read-out: Control of weed species after post-emergence application, SETFA; for pest or weed control at 500 g/ha: Application Rate 500 g/Ha; for pest or weed control at 1000 g/ha: Application Rate 1000 g/Ha
Method in brief: as §1

[3] = system: Ipomoea hederacea (IPOHE); settings: Ipomoea hederacea, post-emergence, 312 h, evaluated after 13 days, 100=total damage to plant, 0=no damage to plant, read-out: Control of weed species after post-emergence application, IPOHE; for pest or weed control at 500 g/ha: Application Rate 500 g/Ha; for pest or weed control at 1000 g/ha: Application Rate 1000 g/Ha
Method in brief: as §1

[4] = system: Chenopodium album (CHEAL); settings: Chenopodium album, post-emergence, 312 h, evaluated after 13 days, 100=total damage to plant, 0=no damage to plant, read-out: Control of weed species after post-emergence application, CHEAL; for pest or weed control at 500 g/ha: Application Rate 500 g/Ha; for pest or weed control at 1000 g/ha: Application Rate 1000 g/Ha
Method in brief: as §1

[5] = system: Eleusine indica (ELEIN); settings: Eleusine indica, post-emergence, 312 h, evaluated after 13 days, 100=total damage to plant, 0=no damage to plant, read-out: Control of weed species after post-emergence application, ELEIN; for pest or weed control at 500 g/ha: Application Rate 500 g/Ha; for pest or weed control at 1000 g/ha: Application Rate 1000 g/Ha
Method in brief: as §1

[6] = system: Amaranthus palmeri (AMAPA); settings: Amaranthus palmeri, post-emergence, 312 h, evaluated after 13 days, 100=total damage to plant, 0=no damage to plant, read-out: Control of weed species after post-emergence application, AMAPA; for pest or weed control at 500 g/ha: Application Rate 500 g/Ha; for pest or weed control at 1000 g/ha: Application Rate 1000 g/Ha
Method in brief: as §1

[7] = system: Lolium perenne (LOLPE); settings: Lolium perenne, post-emergence, 312 h, evaluated after 13 days, 100=total damage to plant, 0=no damage to plant, read-out: Control of weed species after post-emergence application, LOLPE; for pest or weed control at 500 g/ha: Application Rate 500 g/Ha; for pest or weed control at 1000 g/ha: Application Rate 1000 g/Ha
Method in brief: as §1

[8] = system: Digitaria sanguinalis (DIGSA); settings: Digitaria sanguinalis, post-emergence, 312 h, evaluated after 13 days, 100=total damage to plant, 0=no damage to plant, read-out: Control of weed species after post-emergence application, DIGSA; for pest or weed control at 500 g/ha: Application Rate 500 g/Ha; for pest or weed control at 1000 g/ha: Application Rate 1000 g/Ha
Method in brief: as §1

[9] = system: Echinochloa crus-galli (ECHCG); settings: Echinochloa crus-galli, post-emergence, 312 h, evaluated after 13 days, 100=total damage to plant, 0=no damage to plant, read-out: Control of weed species after post-emergence application, ECHCG; for pest or weed control at 500 g/ha: Application Rate 500 g/Ha; for pest or weed control at 1000 g/ha: Application Rate 1000 g/Ha
Method in brief: as §1

Compound | pest or weed control at 500 g/ha [1] [%] | pest or weed control at 500 g/ha [2] [%] | pest or weed control at 500 g/ha [3] [%] | pest or weed control at 500 g/ha [4] [%] | pest or weed control at 500 g/ha [5] [%] | pest or weed control at 500 g/ha [6] [%] | pest or weed control at 500 g/ha [7] [%] | pest or weed control at 500 g/ha [8] [%] | pest or weed control at 500 g/ha [9] [%] | pest or weed control at 1000 g/ha [1] [%] | pest or weed control at 1000 g/ha [2] [%] | pest or weed control at 1000 g/ha [3] [%] | pest or weed control at 1000 g/ha [4] [%] | pest or weed control at 1000 g/ha [5] [%] | pest or weed control at 1000 g/ha [6] [%] | pest or weed control at 1000 g/ha [7] [%] | pest or weed control at 1000 g/ha [8] [%] | pest or weed control at 1000 g/ha [9] [%]
CC(C)OP(=O)([O-])c1c[n+](C(C)C)nc2ccccc12 [Compound A76, isopropoxy-(2-isopropylcinnolin-2-ium-4-yl)phosphinate] | 100 | 80 | 90 | 90 | 100 | 100 | 50 | 80 | 70 | – | – | – | – | – | – | – | – | –
C[n+]1cc(P(=O)([O-])O)c2ccccc2n1 [Compound A78, hydroxy-(2-methylcinnolin-2-ium-4-yl)phosphinate] | – | – | – | – | – | – | – | – | – | 70 | 40 | 10 | 10 | 40 | 30 | 10 | 50 | 50
C[n+]1cc(S(=O)(=O)[O-])c2ccccc2n1 [Compound A6, 2-methylcinnolin-2-ium-4-sulfonate] | – | – | – | – | – | – | – | – | – | 60 | 10 | 0 | 60 | 10 | 10 | 10 | 10 | 10
COC(=O)CCS(=O)(=O)[N-]C(=O)c1c[n+](C)nc2ccccc12 [Compound A42] | – | – | – | – | – | – | – | – | – | 60 | 40 | 40 | 60 | 80 | 70 | 10 | 60 | 20
C[n+]1cc(C(=O)[N-]S(=O)(=O)C2CC2)c2ccccc2n1 [Compound A12] | – | – | – | – | – | – | – | – | – | 70 | 60 | 70 | 60 | 30 | 60 | 40 | 20 | 30
COP(=O)(OC)c1c[n+](CCOS(=O)(=O)[O-])nc2ccccc12 [Compound A70] | – | – | – | – | – | – | – | – | – | 60 | 20 | 30 | 60 | 80 | 50 | 10 | 70 | 70
CCOP(=O)(O)c1c[n+](CCO)nc2ccccc12 [Compound A71] | – | – | – | – | – | – | – | – | – | 100 | 100 | 80 | 90 | 90 | 100 | 40 | 90 | 30
CCCCCCCC[n+]1cc(C(=O)[N-]S(C)(=O)=O)c2ccccc2n1 [Compound A40] | – | – | – | – | – | – | – | – | – | 30 | 40 | 10 | 70 | 10 | 90 | 20 | 20 | 20
C[n+]1cc(C(=O)[N-]S(=O)(=O)CCC(F)(F)F)c2ccccc2n1 [Compound A43] | – | – | – | – | – | – | – | – | – | 90 | 50 | 80 | 30 | 90 | 60 | 20 | 70 | 30
CC(C)OP(=O)([O-])c1c[n+](C(C)(C)C)nc2ccccc12 [Compound A74] | 50 | 20 | 50 | 60 | 60 | 100 | 30 | 20 | 10 | – | – | – | – | – | – | – | – | –
C[n+]1cc(C(=O)[O-])c2ccccc2n1 [Compound A1] | – | – | – | – | – | – | – | – | – | 70 | 30 | 70 | 100 | 100 | 100 | 50 | 90 | 20
CCS(=O)(=O)[N-]C(=O)c1c[n+](C)nc2ccccc12 [Compound A37] | – | – | – | – | – | – | – | – | – | 90 | 60 | 80 | 80 | 70 | 100 | 40 | 80 | 40
COP(=O)([O-])c1c[n+](CCO)nc2ccccc12 [Compound A68, [2-(2-hydroxyethyl)cinnolin-2-ium-4-yl]-methoxy-phosphinate] | – | – | – | – | – | – | – | – | – | 100 | 90 | 100 | 100 | 100 | 100 | 40 | 100 | 60
CS(=O)(=O)[N-]C(=O)c1c[n+](CC(F)F)nc2ccccc12 [Compound A14, [2-(2,2-difluoroethyl)cinnolin-2-ium-4-carbonyl]-methylsulfonyl-azanide] | – | – | – | – | – | – | – | – | – | 40 | 30 | 40 | 20 | 30 | 20 | 0 | 40 | 20
CN(C)S(=O)(=O)[N-]C(=O)c1c[n+](C)nc2ccccc12 [Compound A11] | – | – | – | – | – | – | – | – | – | 70 | 50 | 60 | 60 | 30 | 40 | 20 | 40 | 50

Reference: patent US20220132847A1, “CINNOLINIUM COMPOUNDS FOR USE IN A METHOD OF CONTROLLING UNWANTED PLANT GROWTH” (SYNGENTA CROP PROTECTION AG, priority 2019, published 2022)
